Results: patent US7842671B1, “Peptidomimetic inhibitors of STAT activity and uses thereof” (University of South Florida, priority 2003, dated 2010)
Where two headings read alike, the source gives them in different places. Square brackets hold non-standard residues; d marks the D form. Ends that are not written are not given here. pY = N[C@@H](Cc1ccc(OP(=O)(O)O)cc1)C(=O)O

Assays:
Stat3 [1] = target: T1, Stat3 (Mus musculus, UniProt P42227); assay: EMSA of Stat3 DNA-binding activity in nuclear extracts (hSIE probe); type: biochemical; set-up: nuclear extracts (prepared from epidermal growth factor (EGF)-stimulated fibroblasts); endogenous in cells; host or cells: NIH3T3 fibroblasts stimulated with EGF; settings: for selectivity among Stat3, Stat1 and Stat5 (in words): EMSA IC50 comparison
Experimental: (§1) Nuclear extract preparation and gel shift assays. Nuclear extracts were prepared from cell lines and used for electrophoretic mobility shift assay (EMSA) as previously described (Garcia, R. et al. (1997); Yu, C. L. et al. (1995); Turkson, J. et al. (1998)). In some cases, cells were pre-treated with peptidomimetics for the indicated times (12-48 h) prior to harvesting for nuclear extract preparation. In other studies, nuclear extracts were pre-incubated with peptidomimetics for 30 min at room temperature prior to incubation with radiolabeled probe. The ^32P-radiolabeled oligonucleotide probes used are hSIE (high affinity sis-inducible element, m67 variant, 5′-[…]-3′) (SEQ ID NO. 3) that binds both Stat1 and Stat3 (Garcia, R. et al. (1997); Wagner B. J. et al. (1990)) and MGFe (mammary gland factor element from the bovine β-casein gene promoter, 5′-[…]-3′) (SEQ ID NO. 4) that binds Stat1 and Stat5 (Gouilleux, F. et al. (1995); Seidel, H. M. et al. (1995)).
(§2) Peptidomimetics of the invention can be prepared by replacing prolyl or alanyl residue at the peptide bond that is N-terminal to the phosphotyrosine (Y*) of a peptide such as PY*L or AY*L with an organic substituent such as an optionally substituted aryl or heteroaryl group. The activities of STATs were measured in nuclear extracts (prepared from epidermal growth factor (EGF)-stimulated fibroblasts) as DNA-bound protein complexes by electrophoretic mobility shift assay (EMSA).
From densitometric analysis of band intensities, the IC50 values (concentration of peptidomimetic at which DNA-binding activity is reduced by 50%), which are reported in Table 3, were determined.

Stat5:Stat5 = assay: EMSA of Stat5:Stat5 DNA-binding in nuclear extracts; type: biochemical, mouse; settings: nuclear extracts pre-incubated 30 min, mean and SD of at least 3 assays, read-out: IC50 values against STAT Dimers, Stat5:Stat5
Experimental: as §1
as §2, with “(EMSA). STAT-DNA complexes detected include Stat3:Stat3 homodimers (upper band), Stat1:Stat3 heterodimers (intermediate band) and Stat1:Stat1 homodimers (lower band) (FIG. 1A) when a ^32P-labeled hSIE oligonucleotide probe is used, or Stat5:Stat5 (upper band) and Stat1:Stat1 dimers (lower band) (FIG. 1B) when ^32P-labeled MGFe is used as a probe.” for “(EMSA).”

Stat1:Stat3 = target: T2, Stat1:Stat3 (Mus musculus, UniProt P42227); assay: EMSA of Stat1:Stat3 heterodimer DNA-binding in nuclear extracts (hSIE probe); type: biochemical; settings: nuclear extracts pre-incubated 30 min, mean and SD of at least 3 assays, read-out: IC50 values against STAT Dimers, Stat1:Stat3
T2 construct: nuclear extracts (prepared from epidermal growth factor (EGF)-stimulated fibroblasts); endogenous in cells; host or cells: NIH3T3 fibroblasts stimulated with EGF
Experimental: as §1, §2

Stat1:Stat1 = target: T3, Stat1:Stat1 (Mus musculus, UniProt P42225); assay: EMSA of Stat1:Stat1 DNA-binding in nuclear extracts; type: biochemical; settings: nuclear extracts pre-incubated 30 min, EMSA; mean and SD of at least 3 assays; read-out: IC50 values against STAT Dimers, Stat1:Stat1
T3 construct: nuclear extracts (prepared from epidermal growth factor (EGF)-stimulated fibroblasts); endogenous in cells; host or cells: NIH3T3 fibroblasts stimulated with EGF
T3 sequence (P42225 1-749): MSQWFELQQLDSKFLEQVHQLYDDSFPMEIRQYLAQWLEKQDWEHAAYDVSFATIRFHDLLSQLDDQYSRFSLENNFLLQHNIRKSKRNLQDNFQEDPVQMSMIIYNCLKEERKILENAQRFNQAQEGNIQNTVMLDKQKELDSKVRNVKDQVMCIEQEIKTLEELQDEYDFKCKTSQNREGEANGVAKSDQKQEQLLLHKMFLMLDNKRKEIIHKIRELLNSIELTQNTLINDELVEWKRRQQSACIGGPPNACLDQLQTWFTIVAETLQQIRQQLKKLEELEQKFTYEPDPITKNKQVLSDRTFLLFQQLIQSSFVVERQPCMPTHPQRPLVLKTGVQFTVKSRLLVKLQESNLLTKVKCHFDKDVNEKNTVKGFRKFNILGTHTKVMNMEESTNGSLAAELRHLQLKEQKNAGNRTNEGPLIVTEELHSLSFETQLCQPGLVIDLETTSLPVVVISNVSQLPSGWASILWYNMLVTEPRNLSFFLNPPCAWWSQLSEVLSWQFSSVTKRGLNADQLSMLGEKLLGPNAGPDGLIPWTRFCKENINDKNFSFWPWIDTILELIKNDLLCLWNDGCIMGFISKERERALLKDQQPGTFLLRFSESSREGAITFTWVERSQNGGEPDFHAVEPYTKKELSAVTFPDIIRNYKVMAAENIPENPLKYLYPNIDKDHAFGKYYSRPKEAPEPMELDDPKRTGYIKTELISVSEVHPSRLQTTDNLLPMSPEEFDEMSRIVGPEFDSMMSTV
Experimental: as §1
as §2, with “(EMSA). STAT-DNA complexes detected include Stat3:Stat3 homodimers (upper band), Stat1:Stat3 heterodimers (intermediate band) and Stat1:Stat1 homodimers (lower band) (FIG. 1A) when a ^32P-labeled hSIE oligonucleotide probe is used, or Stat5:Stat5 (upper band) and Stat1:Stat1 dimers (lower band) (FIG. 1B) when ^32P-labeled MGFe is used as a probe.” for “(EMSA).”

[2] = target: Stat3:Stat3 homodimers (activated Stat3 in nuclear extracts of EGF-stimulated NIH3T3 fibroblasts) (mouse) (UniProt P42227); assay: cell-based or functional assay
Stat3 [3] = target: T1, Stat3; set-up: nuclear extracts (prepared from epidermal growth factor (EGF)-stimulated fibroblasts); endogenous in cells; host or cells: NIH3T3 fibroblasts stimulated with EGF; settings: cited from earlier work
[4] = system: Stat1:Stat1 and Stat3:Stat3 dimers; assay: Dissociation-reassociation analysis of pooled Sf-9 lysates by EMSA; type: biochemical; settings: 30 min pre-treatment, 30-300 μM PY*LKTK or 3-1000 μM ISS 610, hSIE probe
Experimental: Cytosolic extract preparation and luciferase assays. Cytosolic extract preparation from fibroblasts and luciferase assays were previously described (Turkson, J. et al. (1998); Turkson, J. et al. (1999)). Briefly, after two washes with PBS and equilibration for 5 min with 0.5 ml PBS-0.5 mM EDTA, cells were scraped off the dishes and the cell pellet was obtained by centrifugation (4,500×g, 2 min, 4° C.). Cells were resuspended in 0.4 ml of low-salt HEPES buffer (10 mM HEPES (pH 7.8), 10 mM KCl, 0.1 mM EGTA, 0.1 mM EDTA, 1 mM phenylmethylsulfonyl fluoride, and 1 mM dithiothreitol) for 15 min, lysed by the addition of 20 μl of 10% Nonidet P-40 (NP-40), and centrifuged (10,000×g, 30 s, 4° C.) to obtain the cytosolic supernatant, which was used for luciferase assays (Promega) measured with a luminometer. Cytosolic lysates containing activated Stat3 or Stat1 that were used for dissociation-reassociation analysis were prepared from baculovirus-infected Sf-9 insect cells as previously described (Turkson, J. et al. (2001); Zhang, Y. et al. (2000)). Briefly, cultured dishes of Sf-9 cells were washed twice with ice-cold 1×PBS and then PBS containing 1 mM sodium orthovanadate.

NIH3T3/v-Src = assay: Apo-BrdU labeling and flow cytometry for apoptotic cells; type: cell-based, mouse; settings: NIH3T3/v-Src, 1 mM, 48 h, Apo-BrdU, flow cytometry
Experimental: (§3) Cell proliferation, soft-agar growth and Apo-BrdU labeling studies. Proliferating fibroblasts and human tumor cells were counted by phase-contrast microscopy for viable cells (using tyrpan blue exclusion). Colony formation assays in six-well dishes and quantification of colonies by iodonitrotetrazolium violet have been previously described (Turkson, J. et al. (1999)). Treatment of cells with inhibitors was initiated 1 day after seeding cells by adding 75 μl of medium with or without inhibitor, and repeated every two to three days. Apoptosis was measured by Apo-BrdU labeling and following the supplier's (PharMingen; San Diego, Calif.) instructions.
(§4) Because one of the functions of Stat3 is to protect transformed or tumor cells from apoptosis (Catlett-Falcone, R. et al. (1999b); Epling-Burnette, P. K. et al. (2001); Grandis, J. R. et al. (2000); Bowman, T. et al. (2000b); Bromberg, J. F. et al. (1999)), the ability of peptidomimetics of the invention (and PY*LKTK-MTS for comparison) (SEQ ID NO. 1) to induce apoptosis in Stat3-dependent transformed fibroblasts was evaluated. Viral Src-transformed NIH3T3/v-Src fibroblasts were treated with or without compounds for 48 h. Treated cells were then labeled with Apo-BrdU (PharMingen; San Diego, Calif.) for detection of DNA breaks.

NIH3T3 = assay: as above; type: cell-based, mouse; settings: NIH3T3, 1 mM, 48 h, flow cytometry
Experimental: as §3, §4

[5] = nuclear extracts pre-incubated 30 min, hSIE probe, EMSA, mean and SD of at least 3 assays, read-out: IC50, disruption of Stat3 DNA-binding activity

T1 sequence (P42227 whole entry): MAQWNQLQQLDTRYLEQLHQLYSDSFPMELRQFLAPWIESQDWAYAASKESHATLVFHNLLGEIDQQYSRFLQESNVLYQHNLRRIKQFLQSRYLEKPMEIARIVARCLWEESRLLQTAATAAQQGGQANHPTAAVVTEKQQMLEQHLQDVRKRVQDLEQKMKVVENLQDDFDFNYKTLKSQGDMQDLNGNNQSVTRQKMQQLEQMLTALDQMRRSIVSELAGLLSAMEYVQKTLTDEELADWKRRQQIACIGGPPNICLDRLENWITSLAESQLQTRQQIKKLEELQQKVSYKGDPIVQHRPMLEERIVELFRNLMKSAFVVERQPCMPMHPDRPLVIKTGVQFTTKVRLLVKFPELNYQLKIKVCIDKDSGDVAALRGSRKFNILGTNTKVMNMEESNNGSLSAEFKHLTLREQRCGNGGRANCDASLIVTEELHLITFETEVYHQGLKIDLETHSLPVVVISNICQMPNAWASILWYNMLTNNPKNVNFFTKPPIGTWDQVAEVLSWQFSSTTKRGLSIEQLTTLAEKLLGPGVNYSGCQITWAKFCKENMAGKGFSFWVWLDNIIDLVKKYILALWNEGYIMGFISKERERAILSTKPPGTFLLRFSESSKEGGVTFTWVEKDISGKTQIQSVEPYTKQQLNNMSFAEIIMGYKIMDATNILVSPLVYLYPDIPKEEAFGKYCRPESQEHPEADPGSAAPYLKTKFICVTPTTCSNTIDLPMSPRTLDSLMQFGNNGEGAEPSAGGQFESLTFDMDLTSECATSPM
T2 sequence (P42227 whole entry): as above

Compound: CC(C)CC(NC(=O)C(Cc1ccc(OP(=O)(O)O)cc1)NC(=O)c1ccc(-c2ccccc2)cc1)C(=O)O (stereo not shown) [ISS 355]
- IC50 (Stat3 [1]): > 1000 µM

Compound: CC(C)CC(NC(=O)C(Cc1ccc(OP(=O)(O)O)cc1)NC(=O)c1ccccc1-c1ccccc1)C(=O)O (stereo not shown) [ISS 360]
- IC50 (Stat3 [1]): 420 µM

Compound: CC(C)CC(NC(=O)C(Cc1ccc(OP(=O)(O)O)cc1)NC(=O)c1cnc2ccccc2c1)C(=O)O (stereo not shown) [ISS 363]
- IC50 (Stat3 [1]): 643 µM

Compound: CC(C)CC(NC(=O)C(Cc1ccc(OP(=O)(O)O)cc1)NC(=O)c1cc([N+](=O)[O-])ccc1F)C(=O)O (stereo not shown) [ISS 375]
- IC50 (Stat3 [1]): > 1000 µM

Compound: Cc1cnc(C(=O)NC(Cc2ccc(OP(=O)(O)O)cc2)C(=O)NC(CC(C)C)C(=O)O)cn1 (stereo not shown) [ISS 493]
- IC50 (Stat5:Stat5): 300 µM
- selectivity among Stat3, Stat1 and Stat5 (in words) (Stat3 [1]): preferential suppression of Stat3 activity over those of Stat1 or Stat5
- IC50 (Stat3 [1]; [5]): 38 µM
- IC50 (Stat1:Stat3): 230 µM
- IC50 (Stat1:Stat1): 273 µM

Compound: COc1cccc(OC)c1C(=O)NC(Cc1ccc(OP(=O)(O)O)cc1)C(=O)NC(CC(C)C)C(=O)O (stereo not shown) [ISS 637]
- IC50 (Stat5:Stat5): 695 µM
- selectivity among Stat3, Stat1 and Stat5 (in words) (Stat3 [1]): preferential suppression of Stat3 activity over those of Stat1 or Stat5
- increase in potency in inhibiting Stat3 DNA-binding activity compared to tripeptides PY*L or AY*L (Stat3 [1]; in vitro, EMSA): 5 fold
- IC50 (Stat3 [1]; [5]): 55 ± 35 µM
- effect on Stat3 DNA-binding activity in vitro (in words) (Stat3 [1]; nuclear extracts, EMSA): potent disrupters of active Stat3
- IC50 (Stat1:Stat3): 195 µM
- IC50 (Stat1:Stat1): 255 µM

Compound: Alanylphosphotyrosylleucine (peptide)
- IC50, concentration at which Stat3 DNA-binding (EMSA, hSIE probe) is reduced by 50% [2]: 217 µM

Compound: PY*LKTK (P[pY]LKTK) [reference compound]
- disruption of Stat3:Stat3 dimer formation and Stat3 DNA-binding activity, as reported earlier (Stat3 [3]): disrupt Stat3:Stat3 dimer formation
- effect on STAT dimers in mixed Stat1:Stat1 and Stat3:Stat3 lysates [4]: appearance of an additional intermediate band representing Stat1:Stat3 heterodimers

Compound: PYLKTK-AAVLLPVLLAAP (PYLKTKAAVLLPVLLAAP; membrane translocating sequence; murine) [PYLKTK-MTS]
- percent of apoptotic cells (NIH3T3/v-Src): 0.4%
- percent of apoptotic cells (NIH3T3): 1.2%

Compound: Prolylphosphotyrosylleucine (peptide)
- IC50, concentration at which Stat3 DNA-binding (EMSA, hSIE probe) is reduced by 50% [2]: 182 µM
